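Grown in 96-well plates, cells were treated for 48 hours with each compound at five concentrations. Insufficient inhibition: endpoint recorded as highest concentration tested. Abbreviation: GI50, concentration required for 50% inhibition of growth. At the TGI there is no net growth.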
What was measured:
Assay in all cases: NCI tumour cell line growth inhibition, 48 h
U251 CNS = test system: U251 CNS
UO-31 renal = test system: UO-31 renal
NCI/ADR-RES ovarian = test system: NCI/ADR-RES ovarian
T-47D breast = test system: T-47D breast
SNB-75 CNS = test system: SNB-75 CNS
MDA-N = test system: MDA-N
KM12 colon = test system: KM12 colon
EKVX NSCLC = test system: EKVX NSCLC
RPMI-8226 leukemia = test system: RPMI-8226 leukemia
SF-539 CNS = test system: SF-539 CNS
NCI-H522 lung = test system: NCI-H522 lung

| Structure (SMILES) | TGI (U251 CNS) [µM] | TGI (UO-31 renal) [µM] | TGI (NCI/ADR-RES ovarian) [µM] | TGI (T-47D breast) [µM] | TGI (SNB-75 CNS) [µM] | TGI (MDA-N) [µM] | TGI (KM12 colon) [µM] | TGI (EKVX NSCLC) [µM] | TGI (RPMI-8226 leukemia) [µM] | TGI (SF-539 CNS) [µM] | TGI (NCI-H522 lung) [µM] | GI50 (EKVX NSCLC) [µM] |
| --- | --- | --- | --- | --- | --- | --- | --- | --- | --- | --- | --- | --- |
| BrCCC[P+](c1ccccc1)(c1ccccc1)c1ccccc1 | > 100 | > 100 | > 100 | 36.5 | 59.2 | > 76.5 | 58.1 | > 100 | > 100 | > 100 | > 27.5 | – |
| CC(=O)[O-].[Ni].c1ccc(/C(=N\Nc2ccccn2)c2ccccn2)cc1 | 22.7 | 18.8 | 25.9 | 15.6 | 46.1 | 21.1 | 23.1 | 55.5 | 16.3 | 24.7 | 20.9 | 0.0973 |
| O=c1[nH]cc(N(CCCl)CCCl)c(=O)[nH]1 | 253 | 201 | 160 | 183 | 162 | 153 | 232 | 230 | 284 | 60.5 | 60.9 | – |
| N#CC(C#N)=Cc1ccc(C=C2SC3=C(SCCS3)S2)s1 | > 100 | > 100 | 42.8 | > 100 | 94 | 3.03 | > 100 | > 100 | 6.28 | 28.1 | > 100 | – |
| COCC(=O)OC1CCn2c1nc1c2C(=O)C(C)=C(NC(C)=O)C1=N (stereo not drawn) | 17.9 | 24 | 17.6 | 6.98 | 29 | 3.23 | 38.2 | 25.3 | 6.79 | 3.87 | 21.5 | – |
| O=C(O)c1cncc(C(=O)O)c1 | > 100 | > 100 | > 100 | > 100 | > 100 | > 100 | > 100 | > 100 | > 100 | > 100 | > 100 | – |
| COC(=O)c1cc(-c2ccc(-c3ccc(O)cc3)cc2)cc(-c2ccc(-c3ccc(O)cc3)cc2)c1 | – | 23.6 | 30.1 | 33.8 | 27.8 | 23 | 6.82 | 25.2 | 27.5 | 19.8 | 8.66 | – |
| CC(=O)N1CC[N+](C)(CCCCN2c3ccccc3Sc3cc(N=[N+]=[N-])ccc32)CC1 | > 100 | > 100 | > 100 | > 100 | > 100 | > 100 | > 100 | > 100 | > 100 | > 100 | > 100 | – |
| O=C1N(CN2CCOCC2)CN(CN2CCOCC2)C(=O)N1Cc1ccccc1 | 56.8 | 68.6 | 61.7 | 77.1 | 72.5 | 33.3 | 57.4 | > 100 | 60.3 | 38.9 | 29 | – |
| NC1=NN(c2ccccc2)C2(c3ccncc3C(=O)O)C1C(N)=NN2c1ccccc1 (stereo not drawn) | > 100 | > 100 | > 100 | > 100 | > 100 | > 100 | > 100 | > 100 | > 100 | > 100 | > 100 | – |
| COc1ccc(C(=O)Cn2c(C(C)=O)nc3ccccc32)cc1 | 31.8 | > 57.3 | > 100 | > 78.7 | > 100 | > 100 | > 100 | > 100 | > 100 | > 100 | > 100 | – |
| CC1(C)CCCCCC(C)(CCCCCCCCCCCO)C1=O (stereo not drawn) | 31.1 | 30.9 | 27 | 29.8 | 29.9 | 32.3 | 32.7 | 32 | 47.2 | 30.9 | 31.1 | – |
| O=NNc1cnccn1 | > 1250 | > 1250 | > 1250 | > 1250 | > 1250 | > 1250 | > 1250 | > 1250 | > 1250 | > 1250 | > 1250 | – |
| CC(=O)O[C@H]1CC[C@H]2[C@@H]3CCC4=C(C(=O)C=CC4(C)OC(C)=O)[C@H]3CC[C@]12C (stereo partly drawn) | > 100 | > 100 | > 100 | > 100 | > 100 | > 100 | > 100 | > 100 | > 100 | > 100 | > 100 | – |
| CCOC(=O)NC(NNc1ccc([N+](=O)[O-])cc1[N+](=O)[O-])(C(F)(F)F)C(F)(F)F | 64.6 | 57.6 | > 100 | > 100 | > 100 | > 100 | > 100 | > 100 | 47.4 | 74.3 | 77 | – |
| Cc1nn(-c2ccccc2)c2c1C(c1cc3ccccc3nc1Cl)NC(=S)N2 (stereo not drawn) | 83 | 50.4 | > 100 | > 100 | > 100 | > 100 | > 100 | > 100 | 48.7 | 67.2 | 69.5 | – |
| Cc1cc(C)nc(NS(=O)(=O)c2ccc(NNC(=O)c3cccc4c(NNc5ccc(S(=O)(=O)Nc6nc(C)cc(C)n6)cc5)c5ccccc5nc34)cc2)n1 | 46.6 | 51.1 | > 100 | 78.9 | 52.3 | 43.1 | 35.6 | 40.5 | 64.9 | 43.6 | 40.8 | – |
| O=Cc1[nH]c(=O)[nH]c(=O)c1CCl | > 100 | > 100 | > 100 | > 100 | 75.6 | > 100 | > 100 | > 100 | > 72.1 | > 100 | > 100 | – |
